Assay results taken from patent publication US7129366B2, “Group of a novel anti-cancer compounds with specific structure” (Yang's Biochem Co. Ltd., priority 2001, dated 2006).
Read-outs that look alike come from different tables or passages of the source. Marks after values point to notes of the source that are not given here.

Legend:
[1] = tested on: UVB-induced skin cancer; test: Prevention of ultraviolet B ray (UVB)-induced skin cancer, DMBA-initiated; format: in vivo, SKH-1 hairless mice; conditions: topical 200 μl of 10% Sample solution once a day, UVB 180 mJ/cm^2 per day, end of 30 weeks
Procedure: N-(12-methyl-tridecyl)hydrazine hydrochloride (Sample) was resolved with 0.8% Tween resulting in a final concentration of 10%.
Forty female SKH-1 hairless mice were randomly divided into control and test groups of 20 each. Each mouse in both groups was treated topically once with DMBA (5.12 μg dissolved in 200 μl acetone solution) to achieve tumor initiation. One week later (day 8), animals in test group started to receive topical application of 200 μl. Sample solution once a day. The control group received 200 μl Tween 80 solvent instead every day. Thirty minutes after the application, animals in both groups were exposed to UVB (290–320 nm) radiation at the dosage of 180 mJ/cm^2 per day to induce growth of tumor. The animals were evaluated for tumor development at the end of 30 weeks.

[2] = tested on: serum hemolysinogenesis; format: in vivo, ICR strain mice
Procedure: The method of administration in each group was the same as above (phagocytic function). However, on the 6th day after administration, 0.2 ml 3:5 (V/V) sheep red blood cell (RBC) suspension was injected i.p. into each mouse. 4 days later (day 10), blood was drawn from all animals and serum was prepared and then diluted 600 times. 1 ml diluted serum was mixed with 0.5 ml 10% sheep RBC suspension. N.S. was used as blank control. All samples were incubated at 37° C. for 30 minutes, and centrifuged (2000 rev/min) for 5 minutes. The supernatant was collected for measurement of OD540 and HC50 was calculated.

[3] = tested on: reticuloendothelial system; test: Phagocytic function of reticuloendothelial system, serum clearance index of carbon grain; format: in vivo, ICR strain mice
Procedure: One group was given N.S. at 20 ml/kg i.g. as a normal control. A positive control group was given CTX i.g. at 25 mg/kg on day 1 and 6.

[4] = tested on: mouse sarcoma S180; test: Mouse sarcoma S180 model, inhibition of tumor growth
Procedure: 50 female ICR strain mice, weighing 19–22 g, were randomly divided into 5 groups of 10 each. S180 sarcoma mass (about 2 mm^3 each) was transplanted subcutaneously into the right armpits of all animals following standard procedure. 3 test groups were given N-(12-methyl-tridecyl)hydrazine hydrochloride (Sample) at 0.1, 0.2, and 0.4 g/kg intragastrically (i.g.) daily for 11 days. The positive control group was given a single dose of cytoxan (CTX) i.g. (25 mg/kg) on day 1. The negative control group was given 0.8% Tween 80 at 0.4 ml/10 g daily for 11 days. On the 12th day, all mice were sacrificed and the tumor was isolated and weighed. The rate of inhibition of tumor growth was calculated and subject to t-test.

[5] = tested on: immune organs (thymus and pancreas); test: Weights of immune organs (organ indices); format: in vivo, ICR strain mice
From the text: The mice were sacrificed after the Serum hemolysinogenesis test above and the thymus and pancreas were collected and weighed.

[6] = tested on: oral adnoma and tongue cancer; test: Topical application to patients of oral adnoma and tongue cancer; format: in vivo, human; conditions: oil state applied directly on focus surface, about one week later
From the text: 12-Methyl-2-tetradecenoic acid in an oil state was directly applied on the focus surface of oral or tongue to patients of oral adnoma and tongue cancer.

[7] = tested on: body skin ulcerous wounds (inflammation); test: Topical application to patients with body skin ulcerous wounds; format: in vivo, human; conditions: oil state applied directly on inflamed surface
From the text: 12-Methyl-2-tetradecenoic acid in an oil state was directly applied on the inflamed surface of patients with body skin ulcerous wounds.

[8] = Sample 0.1 g/kg i.g. + CTX 25 mg/kg
[9] = Sample 0.4 g/kg i.g. + CTX 25 mg/kg
[10] = normal mice, Sample 0.4 g/kg i.g.

CC(C)CCCCCCCCCCCNN.Cl [Compound 45, N-(12-methyl-tridecyl)hydrazine hydrochloride]
average size of cancer smaller than control [1]: 85%
reduction in tumor incidence compared to control group [1]: 45%
HC50 (X ± SD) [2, 8]: 22.45 ± 4.12
HC50 (X ± SD) [2, 9]: 24.01 ± 3.87
HC50 (X ± SD) ([2]; normal mouse, Sample 0.4 g/kg i.g.): 32.08 ± 5.06
effects on serum hemolysinogenesis ([2]; normal or immune-compromised mouse): no obvious effects
effect on the clearance of Carbon grain ([3]; CTX-treated mouse, Sample 100 and 400 mg/kg): improve the clearance of Carbon grain in CTX-treated mouse to a certain extent
K (X ± SD), serum clearance index of carbon grain ([3]; Sample 100 mg/kg i.g. daily for 9 days + CTX 25 mg/kg on day 1 and 6): 0.0433 ± 0.0401
K (X ± SD), serum clearance index of carbon grain ([3]; Sample 400 mg/kg i.g. daily for 9 days + CTX 25 mg/kg on day 1 and 6): 0.0603 ± 0.0371
effect on the Clearance Index of Carbon grain ([3]; normal mouse (P1,3>0.05)): no obvious effect
K (X ± SD), serum clearance index of carbon grain ([3]; normal mouse, Sample 400 mg/kg i.g. daily for 9 days): 0.0792 ± 0.0230
Inhibition Rate ([4]; Sample 100 mg/kg i.g. daily for 11 days): 36.36%
Tumor Weight (X ± SD) ([4]; Sample 100 mg/kg i.g. daily for 11 days, 12th day): 0.70 ± 0.12^b g
Inhibition Rate ([4]; Sample 200 mg/kg i.g. daily for 11 days): 62.73%
Tumor Weight (X ± SD) ([4]; Sample 200 mg/kg i.g. daily for 11 days, 12th day): 0.41 ± 0.10^b g
Inhibition Rate ([4]; Sample 400 mg/kg i.g. daily for 11 days): 70.00%
Tumor Weight (X ± SD) ([4]; Sample 400 mg/kg i.g. daily for 11 days, 12th day): 0.33 ± 0.10^b g
Indices of pancreas [5, 8]: 2.459 ± 0.799^ mg/10 g avoirdupois
Indices of thymus [5, 8]: 2.448 ± 0.603^a mg/10 g avoirdupois
Indices of pancreas [5, 9]: 3.506 ± 1.223^ mg/10 g avoirdupois
Indices of thymus [5, 9]: 3.307 ± 0.721^a mg/10 g avoirdupois
indices of immune organs after combined administration ([5]; mice treated by CTX, combined with Sample): these indices increased
effect on the indices of immune organs ([5]; normal mice, thymus and pancreas (P1,3>0.05)): no significant effect
Indices of pancreas [5, 10]: 4.541 ± 0.508^a mg/10 g avoirdupois
Indices of thymus [5, 10]: 3.617 ± 1.334^a mg/10 g avoirdupois

O=P1(N(CCCl)CCCl)NCCCO1 (centres unmarked) [CTX, cytoxan, reference compound]
HC50 (X ± SD) ([2]; CTX 25 mg/kg i.g. alone): 21.83 ± 4.29
K (X ± SD), serum clearance index of carbon grain ([3]; CTX 25 mg/kg i.g. on day 1 and 6 alone): 0.0260 ± 0.0116
Inhibition Rate ([4]; CTX 25 mg/kg i.g. single dose on day 1): 71.82%
Tumor Weight (X ± SD) ([4]; CTX 25 mg/kg i.g. single dose on day 1, 12th day): 0.31 ± 0.11^b g
Body Weight after treatment (X ± SD) ([4]; S180 mice, CTX 25 mg/kg i.g. single dose on day 1): 25.6 ± 1.6 g
Indices of pancreas ([5]; CTX 25 mg/kg i.g. alone): 2.154 ± 1.189^ mg/10 g avoirdupois
Indices of thymus ([5]; CTX 25 mg/kg i.g. alone): 1.296 ± 0.665^ mg/10 g avoirdupois

CCC(C)CCCCCCCC/C=C/C(=O)O (centres unmarked) [Compound 1, 12-Methyl-2-tetradecenoic acid]
effect on focus of oral adnoma and tongue cancer [6]: the focus reduced, swelling disappeared
anti-inflammation function compared to common anti-inflammatory cream [7]: better anti-inflammation function
healing of ulcerous wound [7]: the ulcerous wound healed quickly
